Data: paper PMC7286885, “An iron (II) dependent oxygenase performs the last missing step of plant lysine catabolism” (Nature Communications, 2020)

Key:
FLO7 = biological target: T1, FLO7 (Oryza sativa, UniProt Q337M4); assay: X-ray crystal structure at […] Å, soaked crystals; assay type: binding; details: active-site Ni(II); Arg64 binds the substrate
T1 construct: E. coli codon-optimized gene, expressed in E. coli BL21 (DE3), Ni-NTA purified
T1 sequence (Q337M4 48-364 limits assumed): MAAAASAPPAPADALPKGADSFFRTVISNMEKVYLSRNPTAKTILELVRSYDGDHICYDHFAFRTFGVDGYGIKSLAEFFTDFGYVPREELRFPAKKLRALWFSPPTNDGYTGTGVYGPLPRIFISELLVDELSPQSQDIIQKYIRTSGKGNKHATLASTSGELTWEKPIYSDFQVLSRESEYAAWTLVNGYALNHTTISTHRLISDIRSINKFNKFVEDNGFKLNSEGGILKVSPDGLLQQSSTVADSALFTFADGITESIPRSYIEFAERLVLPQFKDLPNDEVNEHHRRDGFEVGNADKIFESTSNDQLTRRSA

AT1G07040 = biological target: T2, AT1G07040 (Arabidopsis thaliana, UniProt Q9LMJ7); assay: in vitro assay, product by high resolution LC-MS; assay type: biochemical; details: conversion to 2-hydroxyglutarate; N-terminal localization peptide removed
T2 construct: amplified from Arabidopsis cDNA, expressed in E. coli BL21 (DE3), Ni-NTA purified
T2 sequence (Q9LMJ7 51-371): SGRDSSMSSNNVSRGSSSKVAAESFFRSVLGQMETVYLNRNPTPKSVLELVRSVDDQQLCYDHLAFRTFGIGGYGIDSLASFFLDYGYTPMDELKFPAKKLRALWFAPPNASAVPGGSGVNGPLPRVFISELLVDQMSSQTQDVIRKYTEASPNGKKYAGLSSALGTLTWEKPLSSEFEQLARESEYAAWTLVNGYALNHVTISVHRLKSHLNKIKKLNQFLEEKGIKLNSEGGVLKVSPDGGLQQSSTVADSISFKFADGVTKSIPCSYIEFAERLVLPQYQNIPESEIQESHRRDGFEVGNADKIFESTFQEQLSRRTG

YdcJ = biological target: T3, YdcJ (Escherichia coli, UniProt P76097); assay: in vitro assay, product by high resolution LC-MS; assay type: biochemical; details: conversion to 2-hydroxyglutarate
T3 construct: recombinant in E. coli BL21 (DE3), Ni-NTA purified
T3 sequence (P76097 1-447): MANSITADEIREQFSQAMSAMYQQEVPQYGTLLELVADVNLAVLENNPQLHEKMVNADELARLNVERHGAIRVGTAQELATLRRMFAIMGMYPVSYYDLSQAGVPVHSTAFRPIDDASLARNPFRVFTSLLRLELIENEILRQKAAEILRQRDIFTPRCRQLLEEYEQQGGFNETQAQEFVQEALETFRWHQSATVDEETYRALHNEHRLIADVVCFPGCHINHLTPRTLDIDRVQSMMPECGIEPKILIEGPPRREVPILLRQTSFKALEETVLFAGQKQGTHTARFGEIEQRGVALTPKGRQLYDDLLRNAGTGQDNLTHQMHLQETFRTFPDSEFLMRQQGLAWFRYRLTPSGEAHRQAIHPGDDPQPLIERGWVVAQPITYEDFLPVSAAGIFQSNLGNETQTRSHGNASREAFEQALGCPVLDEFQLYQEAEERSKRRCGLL

HglS = biological target: T4, HglS (Pseudomonas putida, UniProt Q88CC1); assay: X-ray crystal structure, soaked crystals; assay type: binding; details: active-site Ni(II) (noncatalytic); 2OA carboxylate and alpha-keto group coordinate the metal, Arg74 salt bridge
T4 construct: recombinant in E. coli BL21 (DE3), Ni-NTA purified; crystals contain mainly active-site Ni(II); activity with Fe(II)
T4 sequence (Q88CC1 1-464): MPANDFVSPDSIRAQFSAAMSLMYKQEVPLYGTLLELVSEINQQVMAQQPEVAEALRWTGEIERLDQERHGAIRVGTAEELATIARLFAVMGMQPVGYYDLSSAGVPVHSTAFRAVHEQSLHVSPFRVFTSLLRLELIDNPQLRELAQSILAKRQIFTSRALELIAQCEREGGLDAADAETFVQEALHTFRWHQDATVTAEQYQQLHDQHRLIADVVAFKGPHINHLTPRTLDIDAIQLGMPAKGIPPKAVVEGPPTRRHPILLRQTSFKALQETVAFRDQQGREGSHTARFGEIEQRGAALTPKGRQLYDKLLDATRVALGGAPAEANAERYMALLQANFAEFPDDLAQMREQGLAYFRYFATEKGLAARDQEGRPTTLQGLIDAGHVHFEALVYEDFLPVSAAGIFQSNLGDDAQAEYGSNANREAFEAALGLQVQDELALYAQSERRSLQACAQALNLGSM

[1] = substrate: O=C(O)CCCC(=O)C(=O)O; assay: steady-state kinetics of purified enzyme; assay type: biochemical, Oryza sativa; details: Fe(II)- and O2-dependent; N-terminal localization peptide removed
[2] = substrate: O=C(O)CCCC(=O)C(=O)O; assay: initial rates of O2 consumption, Clark-type electrode; assay type: biochemical, Pseudomonas putida; details: 10 µM FeSO4, 100 mM Tris pH 7.0, room temperature, 240 µM O2, 10-200 µM 2OA, 100 nM enzyme
Source text: initial rates of O2 consumption, Clark-type electrode on HglS | kinetic parameters determined by monitoring oxygen consumption were similar to those we previously reported

## O=C(O)CCCC(=O)C(=O)O [2OA, 2-oxoadipate]
FLO7
  X-ray crystal structure at 1.85 Å, soaked crystals: soaked with 2OA, producing diffraction data used to solve the substrate-bound crystal structure
AT1G07040
  in vitro assay, product by high resolution LC-MS: plant homologs AT1G07040 and FLO7 catalyzed the conversion of 2OA
YdcJ
  in vitro assay, product by high resolution LC-MS: the E. coli homolog YdcJ and the plant homologs AT1G07040 and FLO7 catalyzed the conversion
HglS
  X-ray crystal structure, soaked crystals: soaked HglS crystals with 2OA and solved the structure of the resulting complex

B1: FLO7 (Oryza sativa Japonica Group) (protein)
chain: T1 sequence (Q337M4 48-364 limits assumed)
notes: E. coli codon-optimized gene, expressed in E. coli BL21 (DE3), Ni-NTA purified
[1]
  Km: 550 µM

B2: HglS (Pseudomonas putida KT2440) (protein)
chain: T4 sequence (Q88CC1 1-464)
notes: recombinant in E. coli BL21 (DE3), Ni-NTA purified; crystals contain mainly active-site Ni(II); activity with Fe(II)
[2]
  Km: 10 µM
